The record followed here is ChEMBL document CHEMBL1124432, “(6R,6S)-5,8,10-trideaza-5,6,7,8-tetrahydrofolate and 6(R,6S)-5,8,10-trideaza-5,6,7,8-tetrahydropteroyl-L-ornithine as potential antifolates and antitumor agents” (J Med Chem, 1989).

Data set [1] concerns the target T1, Folylpolyglutamate synthase, mitochondrial (Mus musculus) (UniProt P48760).
T1 sequence (whole entry): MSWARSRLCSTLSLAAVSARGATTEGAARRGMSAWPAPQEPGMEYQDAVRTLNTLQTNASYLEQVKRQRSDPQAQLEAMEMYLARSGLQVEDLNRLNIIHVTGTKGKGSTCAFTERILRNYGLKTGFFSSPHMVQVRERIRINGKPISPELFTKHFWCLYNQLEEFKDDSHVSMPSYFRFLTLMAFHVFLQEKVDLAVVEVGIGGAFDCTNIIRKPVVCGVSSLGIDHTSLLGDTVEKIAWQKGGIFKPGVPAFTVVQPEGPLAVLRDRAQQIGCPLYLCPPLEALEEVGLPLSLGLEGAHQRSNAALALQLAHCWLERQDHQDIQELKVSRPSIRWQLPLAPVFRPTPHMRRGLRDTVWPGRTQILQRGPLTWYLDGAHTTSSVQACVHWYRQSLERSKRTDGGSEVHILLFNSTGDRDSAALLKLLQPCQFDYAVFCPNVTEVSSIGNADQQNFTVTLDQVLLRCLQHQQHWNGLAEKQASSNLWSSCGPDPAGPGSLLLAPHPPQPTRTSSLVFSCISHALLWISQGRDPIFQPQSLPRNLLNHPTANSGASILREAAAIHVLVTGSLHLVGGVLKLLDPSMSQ
Put plainly: (§1) The apparent Km of compound as a substrate for partially purified mouse liver Folyl-polyglutamate synthase.

The next data set relates to CCRF-CEM. Put plainly: Inhibitory activity against the growth of CEM human leukoblast cells; value ranges from 20-60. The data set is classed as functional, cell-based.
For another data set, the system named is L1210. Put plainly: Inhibitory activity against the growth of murine L1210 leukemia cells; value ranges from 20-60. The data set is classed as functional, cell-based. As to conditions: Mus musculus.
The nature of data set [2]: Inhibitory activity against the growth of SSC15 human squamous carcinoma cells; value ranges from 20-60. The data set is classed as functional.
Substrate in data set [3]: Nc1nc(N)c2nc(CNc3ccc(C(=O)N[C@@H](CCC(=O)O)C(=O)O)cc3)cnc2n1
Described as §1.

Substrate in data set [4]: Nc1nc(O)c2c(n1)CCC(CCc1ccc(C(=O)NC(CCC(=O)O)C(=O)O)cc1)C2
The data set is described as §1.

Substrate in data set [5]: Nc1nc(O)c2c(n1)NCC(CNc1ccc(C(=O)N[C@@H](CCC(=O)O)C(=O)O)cc1)N2
The data set is described as §1.

As usually defined, the IC50 is the concentration at which inhibition is half-maximal. Read a low IC50 as greater potency. What is called Km is the substrate concentration at which the rate is half of its maximum.

Regarding `NCCCC(NC(=O)c1ccc(CCC2CCc3nc(N)nc(O)c3C2)cc1)C(=O)O` (configuration not stated), the Kis in data set [1] worked out at 10.1 µM.

For the molecule `Nc1nc(O)c2cc(CCc3ccc(C(=O)N[C@@H](CCC(=O)O)C(=O)O)cc3)cnc2n1`, the IC50 (with CCRF-CEM; in the data set on L1210; in data set [2]) was 60 nM in each case.

B1: Folylpolyglutamate synthase, mitochondrial (Mus musculus), P48760 (protein)
chain: MSWARSRLCSTLSLAAVSARGATTEGAARRGMSAWPAPQEPGMEYQDAVRTLNTLQTNASYLEQVKRQRSDPQAQLEAMEMYLARSGLQVEDLNRLNIIHVTGTKGKGSTCAFTERILRNYGLKTGFFSSPHMVQVRERIRINGKPISPELFTKHFWCLYNQLEEFKDDSHVSMPSYFRFLTLMAFHVFLQEKVDLAVVEVGIGGAFDCTNIIRKPVVCGVSSLGIDHTSLLGDTVEKIAWQKGGIFKPGVPAFTVVQPEGPLAVLRDRAQQIGCPLYLCPPLEALEEVGLPLSLGLEGAHQRSNAALALQLAHCWLERQDHQDIQELKVSRPSIRWQLPLAPVFRPTPHMRRGLRDTVWPGRTQILQRGPLTWYLDGAHTTSSVQACVHWYRQSLERSKRTDGGSEVHILLFNSTGDRDSAALLKLLQPCQFDYAVFCPNVTEVSSIGNADQQNFTVTLDQVLLRCLQHQQHWNGLAEKQASSNLWSSCGPDPAGPGSLLLAPHPPQPTRTSSLVFSCISHALLWISQGRDPIFQPQSLPRNLLNHPTANSGASILREAAAIHVLVTGSLHLVGGVLKLLDPSMSQ
On to B1, for which the Km in data set [3] was determined as 20 µM; in data set [4] it was 1.54 µM; in data set [5], 8 µM.
